Measured values reported in patent publication US20250154138A1, “Small Molecule IL-17A Modulators” (BeiGene, Ltd., priority 2022, published 2025).

Key:
[1] = molecular target: human IL-17A / human IL-17RA (Homo sapiens (Human), UniProt Q16552); test: Human IL-17A biochemical assay (HTRF, blocking of IL-17A binding to IL-17RA); conditions: 0.4 nM IL-17A, 0.3 nM IL-17RA, max compound concentration 10 uM
Procedure, shortened: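 HTRF competition: 0.4 nM recombinant human IL-17A pre-incubated 3 h at room temperature with compound (top 10 uM, 2.7-fold, 10 points) in HEPES pH 7.5 buffer, then 0.3 nM IL-17RA added for 1 h, then anti-6His-Tb/anti-human IgG-XL665 detection for 1 h.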

[2] = system: IL-17-induced GROα secretion from HT-29 cells; test: GROα release assay in human colorectal adenocarcinoma epithelial cell (HT-29, ELISA); type: cell-based; conditions: Homo sapiens, HT-29, 48 h, 10 ng/mL IL-17A, highest concentration 10 μM, read-out: Cellular assay HT29 cell/CXCL1 IC50
Protocol: The purpose of the assay is to test the ability of a compound to neutralize IL17A proteins. IL17 can stimulate human epithelial cells to secrete GROα. The ability of one compound of the invention to neutralize IL-17-induced GROα secretion from the human colorectal adenocarcinoma epithelia cell line HT-29 is tested in this assay.
HT-29 cells (human colorectal adenocarcinoma epithelia cell, ATCC) were stimulated with IL-17A (Novoprotein, #C774) in final concentration of 10 ng/mL. The resultant GROα response was measured using an ELISA kit from Invitrogen (#88-52122). HT-29 cells were cultured in complete medium (McCoy's 5A medium+10% FBS) and maintained in a tissue culture flask using standard techniques. On day 1, detached the cell by using TrypLE (Gibco, #12605036) and used the complete medium to neutralize. The cells were centrifuged at 11,00 rmp for 4 minutes. Re-suspended the cell pellet in complete medium and seeded 50,000 HT-29 cells into the 96-well assay plate (Corning, 3599) at 135 μL complete medium per well. The cells were incubated for overnight, at 37° C./5% CO2 to adherent the plate. On day 2, prepared a 4-fold serial dilution of the tested compound in DMSO. The highest concentration of the compound was 10 μM. Transferred 2 μL of the serial diluted compound from the serial dilution plate into the reagent plate which was contained 198 μL complete medium with 100 ng/mL IL-17A per well. The compounds were incubated with the IL-17A for 15 minutes. 15 μL mixtures from reagent plate were transferred into the cell assay plate. Incubated the plate at 37° C./5% CO2 for 48 hours. After the incubation, on day 4, GROα level were measured with GROα ELISA as the manufacturer's instructions. 50 μL supernatant was collected form the assay plate to ELISA plate. ELISA plate was read at 450 nm on a microplate reader and compared to a standard calibration curve.
Data were processed using GraphPad Prism. GROα concentration was calculated from the standard curve. IC50 was determined using the equation log concentration (inhibitor) against response and fitted to four parameters.

human IL-17A / human IL-17RA, sequence (Q16552 24-155): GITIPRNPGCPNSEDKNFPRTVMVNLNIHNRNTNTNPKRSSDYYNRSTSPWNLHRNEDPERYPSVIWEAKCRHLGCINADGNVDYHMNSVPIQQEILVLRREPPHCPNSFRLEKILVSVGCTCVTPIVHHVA

Compound `Cc1nonc1C(=O)N[C@H](C(=O)Nc1ccc2c(c1)CC(c1cn3ccccc3n1)(N1CC3(CC3)CNC1=O)C2)C1CCC(F)(F)CC1` (stereo partly drawn) [Example 223, N-((1S)-1-(4,4-difluorocyclohexyl)-2-((2-(imidazo[1,2-a]pyridin-2-yl)-2-(6-oxo-5,7-diazaspiro[2.5]octan-5-yl)-2,3-dihydro-1H-inden-5-yl)amino)-2-oxoethyl)-4-methyl-1,2,5-oxadiazole-3-carboxamide] has an IC50 [1] of 0.118 µM and an IC50 [2] of 0.607 µM.
Work on `Cc1nonc1C(=O)N[C@H](C(=O)Nc1ccc2c(c1)CC(C(=O)Nc1ccccc1C#N)(N1C[C@@H](C(C)C)NC1=O)C2)C(C1CC1)C1CC1` (stereo partly drawn) [Example 283, N-((2S)-1-((2-((2-cyanophenyl)carbamoyl)-2-((R)-4-isopropyl-2-oxoimidazolidin-1-yl)-2,3-dihydro-1H-inden-5-yl)amino)-3,3-dicyclopropyl-1-oxopropan-2-yl)-4-methyl-1,2,5-oxadiazole-3-carboxamide] yielded an IC50 [1] of 0.0325 µM and an IC50 [2] of 0.0346 µM.
`Cc1nonc1C(=O)N[C@H](C(=O)Nc1ccc2c(c1)CC(C(=O)Nc1ccccc1F)(N1C[C@@H](C(C)C)NC1=O)C2)C1CCC(F)(F)CC1` (stereo partly drawn) [Example 249, N-((1S)-1-(4,4-difluorocyclohexyl)-2-((2-((2-fluorophenyl)carbamoyl)-2-((R)-4-isopropyl-2-oxoimidazolidin-1-yl)-2,3-dihydro-1H-inden-5-yl)amino)-2-oxoethyl)-4-methyl-1,2,5-oxadiazole-3-carboxamide] gave an IC50 [1] of 0.226 µM and an IC50 [2] of 0.695 µM.
In the case of `CNC(=O)C1(N2C[C@@H](C(C)C)NC2=O)Cc2ccc(NC(=O)C(NC(=O)c3ccnn3C)C3CCc4ccc(Cl)cc4C3)cc2C1` (stereo partly drawn) [Example 196, N-(1-(7-chloro-1,2,3,4-tetrahydronaphthalen-2-yl)-2-((2-((R)-4-isopropyl-2-oxoimidazolidin-1-yl)-2-(methylcarbamoyl)-2,3-dihydro-1H-inden-5-yl)amino)-2-oxoethyl)-1-methyl-1H-pyrazole-5-carboxamide], the IC50 [1] is reported as 0.0198 µM and the IC50 [2] is reported as 0.0585 µM.
With `CC(C)C1(N2CC3(CC3)CNC2=O)Cc2ccc(NC(=O)[C@@H](NC(=O)c3ccnn3C)C3CCCCC3)cc2C1` (stereo partly drawn) [Example 170, N-((1S)-1-cyclohexyl-2-((2-isopropyl-2-(6-oxo-5,7-diazaspiro[2.5]octan-5-yl)-2,3-dihydro-1H-inden-5-yl)amino)-2-oxoethyl)-1-methyl-1H-pyrazole-5-carboxamide] the IC50 [1] was 0.169 µM and the IC50 [2] was 0.227 µM.
In the case of `COCC1(N2CC3(CC3)CNC2=O)Cc2ccc(NC(=O)[C@@H](NC(=O)c3ccnn3C)C(C3CC3)C3CC3)cc2C1` (stereo partly drawn) [Example 159, N-((2S)-1,1-dicyclopropyl-3-((2-(methoxymethyl)-2-(6-oxo-5,7-diazaspiro[2.5]octan-5-yl)-2,3-dihydro-1H-inden-5-yl)amino)-3-oxopropan-2-yl)-1-methyl-1H-pyrazole-5-carboxamide], the IC50 [1] is reported as 0.0532 µM and the IC50 [2] is reported as 0.187 µM.
`CNC(=O)C1(N2C[C@@H](C(C)C)NC2=O)Cc2ccc(NC(=O)[C@@H](NC(=O)c3ccnn3C)C(C3CC3)C3CC3)cc2C1` (stereo partly drawn) [Example 90, N-((2S)-1,1-dicyclopropyl-3-((2-((R)-4-isopropyl-2-oxoimidazolidin-1-yl)-2-(methylcarbamoyl)-2,3-dihydro-1H-inden-5-yl)amino)-3-oxopropan-2-yl)-1-methyl-1H-pyrazole-5-carboxamide] showed an IC50 [1] of 0.037 µM and an IC50 [2] of 0.0486 µM.
For `CNC(=O)C1(N2C[C@@H](C(C)C)NC2=O)Cc2ccc(NC(=O)[C@@H](NC(=O)c3ccnn3CCO)C3CCCCC3)cc2C1` (stereo partly drawn) [Example 126, N-((1S)-1-cyclohexyl-2-((2-((R)-4-isopropyl-2-oxoimidazolidin-1-yl)-2-(methylcarbamoyl)-2,3-dihydro-1H-inden-5-yl)amino)-2-oxoethyl)-1-(2-hydroxyethyl)-1H-pyrazole-5-carboxamide], the IC50 [1] was 0.072 µM and the IC50 [2] was 3.96 µM.
